How the values were obtained:
[1] = molecular target: T1, Human GPR40 (Homo sapiens, UniProt O14842); test: FLIPR assay, agonist-induced calcium mobilization; assay type: cell-based; design: expressed in transfected cells; conditions: GPR40/CHO NFAT BLA cells
Protocol: (§1) Human and mouse GPR40 stable cell-lines were generated in CHO cells stably expressing NFAT BLA (Beta-lactamase). A human GPR40 stable cell-line was generated in HER cells stably expressing the aequorin expressing reporter. The expression plasmids were transfected using lipofectamine (Life Technologies) following manufacturer's instructions. Stable cell-lines were generated following drug selection.
FLIPR (Fluorimetric Imaging Plate Reader, Molecular Devices) assays were performed to measure agonist-induced calcium mobilization of the stable clones. For the FLIPR assay, one day before assay, GPR40/CHO NFAT BLA cells were seeded into black-wall-clear-bottom 384-well plates (Costar) at 1.4×10e4 cells/20 μL medium/well. The cells were incubated with 20 μl/well of the assay buffer (HMS, 0.1% BSA, 20 mM HEPES, 2.5 mM probenecid, pH 7.4) containing 8 μM fluo-4, AM, 0.08% pluronic acid at room temperature for 100 minutes. Fluorescence output was measured using FLIPR. Compounds were dissolved in DMSO and diluted to desired concentrations with assay buffer. 13.3 μL/well of compound solution was added.

[2] = molecular target: T1, Human GPR40; test: Inositol Phosphate Turnover (IP1) Assay; assay type: cell-based; design: expressed in transfected cells; host or cells: HEK cells (stably expressing the aequorin reporter); conditions: HEK cells stably expressing human GPR40, CisBio IP-One kit
Protocol: as §1
The assay is performed in 384-well format. HEK cells stably expressing human GPR40 are plated at 15,000 cells per well in growth medium (DMEM/10% fetal calf serum). Cell plates are then incubated 16 hours at 37 degrees in a 5% CO2 incubator.
Measurement of Inositol Phosphate Turnover (IP1) is performed using the CisBio IP-One kit (Part number 62IPAPEB). After the 16 hour incubation, the cells are washed with HEPES buffer and 10 ul of stimulation buffer (prepared as described in the kit) is added to each well. In a separate plate, compounds are diluted in DMSO (400-fold over the final concentration in the assay well) and 25 nl is acoustically transferred to the appropriate well in the assay cell plate. The plates are then incubated for 60 minutes at 37 degrees. 10 ul of detection buffer (also prepared as described in the IP-One kit) is added to each well and the plates are incubated for 60 minutes in the dark. The plates are then read in a Perkin Elmer EnVision or equivalent reader able to measure FRET. Fluorescent ratio of emission at 665 and 620 nm is then converted to IP1 concentration by back calculating from an IP1 standard curve prepared at the time of the assay.

T1 sequence (O14842 whole entry): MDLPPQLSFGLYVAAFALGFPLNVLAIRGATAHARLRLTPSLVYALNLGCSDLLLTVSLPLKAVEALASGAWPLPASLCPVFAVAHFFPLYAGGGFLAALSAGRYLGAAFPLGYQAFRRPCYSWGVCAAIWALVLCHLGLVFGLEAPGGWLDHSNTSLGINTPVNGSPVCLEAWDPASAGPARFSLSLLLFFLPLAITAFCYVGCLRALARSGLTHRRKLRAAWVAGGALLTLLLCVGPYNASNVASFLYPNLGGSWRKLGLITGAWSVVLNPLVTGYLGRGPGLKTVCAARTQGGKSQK

| SMILES | EC50 [1] | EC50 [2] |
| --- | --- | --- |
| O=C(O)[C@H]1[C@@H]2Cc3cc(OCc4ccc5c(c4)N(c4ccccc4)CCO5)ncc3[C@@H]21 [Example 61, (5aR,6S,6aS)-3-((4-phenyl-3,4-dihydro-2H-benzo[b][1,4]oxazin-6-yl)methoxy)-5,5a,6,6a-tetrahydrocyclopropa[4,5]cyclopenta[1,2-c]pyridine-6-carboxylic acid] | 40.5 nM | 653 nM |
| O=C(O)[C@H]1[C@@H]2Cc3cc(OCc4ccc5c(c4)C(c4ccccc4C(F)(F)F)CCO5)ncc3[C@@H]21 (stereo partly drawn) [Example 48, (5aR,6S,6aS)-3-((4-(2-(trifluoromethyl)phenyl)chroman-6-yl)methoxy)-5,5a,6,6a-tetrahydrocyclopropa[4,5]cyclopenta[1,2-c]pyridine-6-carboxylic acid] | 77.8 nM | 36.2 nM |
| O=C(O)[C@H]1[C@@H]2Cc3cc(OCc4ccc5c(c4)N(c4ccccc4)CCC5)ccc3[C@@H]21 [Example 66, (1S,1aS,6aR)-4-((1-phenyl-1,2,3,4-tetrahydroquinolin-7-yl)methoxy)-1,1a,6,6a-tetrahydrocyclopropa[a]indene-1-carboxylic acid] | 9.77 nM | 72.6 nM |
| COc1ccc(F)c(N2CC(C)(C)c3cc(F)c(COc4cc5c(cn4)[C@H]4[C@@H](C5)[C@@H]4C(=O)O)cc32)c1 [Example 56, (5aR,6S,6aS)-3-((5-fluoro-1-(2-fluoro-5-methoxyphenyl)-3,3-dimethylindolin-6-yl)methoxy)-5,5a,6,6a-tetrahydrocyclopropa[4,5]cyclopenta[1,2-c]pyridine-6-carboxylic acid] |  | 43.8 nM |
| O=C(O)[C@H]1[C@@H]2Cc3cc(OCc4cc5c(cc4F)C(n4cccn4)CC5c4ccccc4C(F)(F)F)ncc3[C@@H]21 (single isomer, unassigned) [Example 58] |  | 818 nM |
| O=C(O)[C@H]1[C@@H]2Cc3cc(OCc4ccc5c(c4)N(c4ccccn4)CCC5)ccc3[C@@H]21 [Example 67, (1S,1aS,6aR)-4-((1-(pyridin-2-yl)-1,2,3,4-tetrahydroquinolin-7-yl)methoxy)-1,1a,6,6a-tetrahydrocyclopropa[a] indene-1-carboxylic acid] | 28.9 nM | 169 nM |
| CC1(C)CC(c2ccc(OCCCS(C)(=O)=O)cc2C(F)(F)F)c2cc(COc3cc4c(cn3)[C@H]3[C@@H](C4)[C@@H]3C(=O)O)c(F)cc21 (stereo partly drawn) [Example 28, (6S)-3-((6-fluoro-1,1-dimethyl-3-(4-(3-(methylsulfonyl)propoxy)-2-(trifluoromethyl)phenyl)-2,3-dihydro-1H-inden-5-yl)methoxy)-5,5a,6,6a-tetrahydrocyclopropa[4,5]cyclopenta[1,2-c]pyridine-6-carboxylic acid] | 6.9 nM | 41.2 nM |
| O=C(O)[C@H]1[C@@H]2Cc3cc(OCc4cccc5c4CCC5c4ccccc4C(F)(F)F)ncc3[C@@H]21 (single isomer, unassigned) [Example 65] |  | 124 nM |
| O=C(O)[C@H]1[C@@H]2Cc3cc(OCc4cc5c(cnn5-c5ccccc5C(F)(F)F)cc4F)ncc3[C@@H]21 [Example 77, (5aR,6S,6aS)-3-((5-fluoro-1-(2-(trifluoromethyl)phenyl)-1H-indazol-6-yl)methoxy)-5,5a,6,6a-tetrahydrocyclopropa[4,5]cyclopenta[1,2-c]pyridine-6-carboxylic acid] |  | 7.08 nM |
| O=C(O)[C@H]1[C@@H]2Cc3cc(OCc4cccc5c4CCC5c4ccccc4C(F)(F)F)ncc3[C@@H]21 (single isomer, unassigned) [Example 64] |  | 154 nM |
| CC1(C)CC(c2ccccc2C(F)(F)F)c2cc(COc3cc4c(cn3)[C@@]3(C)[C@@H](C4)[C@@H]3C(=O)O)c(F)cc21 (single isomer, unassigned) [Example 75] |  | 157 nM |
| CC1(C)OC(c2ccccc2C(F)(F)F)c2cc(COc3cc4c(cn3)[C@H]3[C@@H](C4)[C@@H]3C(=O)O)c(F)cc21 (stereo partly drawn) [Example 41, (5aR,6S,6aS)-3-((6-fluoro-1,1-dimethyl-3-(2-(trifluoromethyl)phenyl)-1,3-dihydroisobenzofuran-5-yl)methoxy)-5,5a,6,6a-tetrahydrocyclopropa[4,5]cyclopenta[1,2-c]pyridine-6-carboxylic acid] |  | 1.99 nM |
| COc1ccc(F)c(C2CC(C)(C)c3cc(F)c(COc4cc5c(cn4)[C@H]4[C@@H](C5)[C@@H]4C(=O)O)cc32)c1 (stereo partly drawn) [Example 45, (5aR,6S,6aS)-3-((6-fluoro-3-(2-fluoro-5-methoxyhenyl)-1,1-dimethyl-2,3-dihydro-1H-inden-5-yl)methoxy)-5,5a,6,6a-tetrahydro-cyclopropa[4,5]cyclopenta [1,2-c]pyridine-6-carboxylic acid] |  | 223 nM |
| O=C(O)[C@H]1[C@@H]2Cc3cc(OCc4cc5c(cc4F)CCC5c4ccccc4C(F)(F)F)ncc3[C@@H]21 (stereo partly drawn) [Example 20, (5aR,6S,6aS)-3-((6-fluoro-3-(2-(trifluoromethyl)phenyl)-2,3-dihydro-1H-inden-5-yl)methoxy)-5,5a,6,6a-tetrahydrocyclopropa[4,5]cyclopenta[1,2-c]pyridine-6-carboxylic acid] |  | 10.3 nM |
| O=C(O)[C@H]1[C@@H]2Cc3cc(OCc4cc5c(-c6ccccc6C(F)(F)F)cn(-c6ccccc6)c5cc4F)ncc3[C@@H]21 [Example 63, (5aR,6S,6aS)-3-((6-fluoro-1-phenyl-3-(2-(trifluoromethyl)phenyl)-1H-indol-5-yl)methoxy)-5,5a,6,6a-tetrahydrocyclopropa[4,5]cyclopenta[1,2-c]pyridine-6-carboxylic acid] |  | 28.2 nM |
| O=C(O)[C@H]1[C@@H]2Cc3cc(OCc4cc5c(cc4F)CCOC5c4ccccc4C(F)(F)F)ncc3[C@@H]21 (stereo partly shown) [Example 59] |  | 97.3 nM |
| O=C(O)[C@H]1[C@@H]2Cc3cc(OCc4cc5c(cc4F)C(n4cccn4)CC5c4ccccc4C(F)(F)F)ncc3[C@@H]21 (single isomer, unassigned) [Example 57] |  | 1.78 nM |
| O=C(O)[C@H]1[C@@H]2Cc3cc(OCc4cc5c(ccn5Cc5ccccc5C(F)(F)F)cc4F)ncc3[C@@H]21 [Example 78, (5aR,6S,6aS)-3-((5-fluoro-1-(2-(trifluoromethyl)benzyl)-1H-indol-6-yl)methoxy)-5,5a,6,6a-tetrahydrocyclopropa[4,5]cyclopenta[12-c]pyridine-6-carboxylic acid] |  | 195 nM |
| CN(C)[C@H]1C[C@H](c2ccccc2C(F)(F)F)c2cc(COc3cc4c(cn3)[C@H]3[C@@H](C4)[C@@H]3C(=O)O)c(F)cc21 [Example 79, (5aR,6S,6aS)-3-(((1S,3S)-1-(dimethylamino)-6-fluoro-3-(2-(trifluoromethyl)phenyl)-2,3-dihydro-1H-inden-5-yl)methoxy)-5,5a,6,6a-tetrahydrocyclopropa[4,5]cyclopenta[1,2-c]pyridine-6-carboxylic acid, or (5aR,6S,6aS)-3-(((1R,3R)-1-(dimethylamino)-6-fluoro-3-(2-(trifluoromethyl)phenyl)-2,3-dihydro-1H-inden-5-yl)methoxy)-5,5a,6,6a-tetrahydrocyclopropa[4,5]cyclopenta[1,2-c]pyridine-6-carboxylic acid] |  | 15.4 nM |
| CC1(C)CC(C)(C)c2cc(COc3cc4c(cn3)[C@H]3[C@@H](C4)[C@@H]3C(=O)O)c(F)cc21 [Example 76, (5aR,6S,6aS)-3-((6-fluoro-1,1,3,3-tetramethyl-2,3-dihydro-1H-inden-5-yl)methoxy)-5,5a,6,6a-tetrahydrocyclopropa[4,5]cyclopenta[1,2-c]pyridine-6-carboxylic acid] |  | 17.3 nM |
| CC1(C)CC(c2ccccc2C(F)(F)F)c2cc(COc3cc4c(cn3)[C@@H]3[C@@H](C(=O)O)[C@@H]3C4(F)F)c(F)cc21 (stereo partly drawn) [Example 24, (5aR,6R,6aR)-5,5-difluoro-3-((6-fluoro-1,1-dimethyl-3-(2-(trifluoromethyl)phenyl)-2,3-dihydro-1H-inden-5-yl)methoxy)-5,5a,6,6a-tetrahydrocyclopropa[4,5]cyclopenta[1,2-c]pyridine-6-carboxylic acid] |  | 53 nM |
| O=C(O)[C@H]1[C@@H]2Cc3cc(OCc4cc5c(cc4F)CCOC5c4ccccc4C(F)(F)F)ncc3[C@@H]21 (single isomer, unassigned) [Example 60] |  | 10.8 nM |
| CC1(C)CCN(c2ccccc2C(F)(F)F)c2c1ccc(COc1cc3c(cn1)[C@H]1[C@@H](C3)[C@@H]1C(=O)O)c2F [Example 52, (5aR,6S,6aS)-3-((8-fluoro-4,4-dimethyl-1-(2-(trifluoromethyl)phenyl)-1,2,3,4-tetrahydroquinolin-7-yl)methoxy)-5,5a,6,6a-tetrahydrocyclopropa[4,5]cyclopenta[1,2-c]pyridine-6-carboxylic acid] |  | 29.7 nM |

— US10000454B2, “Antidiabetic tricyclic compounds” (Merck Sharp & Dohme Corp., priority 2014, dated 2018)
